Experimental data published in ChEMBL document CHEMBL1201862, “PubChem BioAssay data set” (2004).
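In this assay, cells in 96-well plates receive the compound at five concentrations for 48 hours. Endpoints are linearly interpolated between the surrounding concentrations. GI50 = concentration required for 50% inhibition of growth.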 The source made the active and inactive calls. Cut-off read from the data, not from the text of the source: active = GI50 up to about 1.1 µM and inactive = higher.

How the values were obtained:
Assay in all cases: inhibition of tumour cell growth, NCI panel, 48 h
DU-145 = tested on: DU-145
NCI/ADR-RES = tested on: NCI/ADR-RES
SNB-78 = tested on: SNB-78
HOP-18 = tested on: HOP-18
DMS-114 = tested on: DMS-114
KM-20L2 = tested on: KM-20L2
XF498 = tested on: XF498
LXFL 529 = tested on: LXFL 529

SMILES	GI50 (DU-145)	GI50 (NCI/ADR-RES)	GI50 (SNB-78)	GI50 (HOP-18)	GI50 (DMS-114)	GI50 (KM-20L2)	GI50 (XF498)	GI50 (LXFL 529)
CCCN1C(=O)CN(S(=O)(=O)c2ccc(Cl)cc2)C1=O	> 100 µM (inactive)							
COc1cc2cc(C(=O)N3CC(COS(C)(=O)=O)c4ccc(O)cc43)[nH]c2c(OC)c1OC (stereo unspecified)	< 0.0001 µM (active)	< 0.0001 µM (active)						
C1OC1C1CO1 (stereo unspecified)			87.3 µM (inactive)	> 100 µM (inactive)	10.4 µM (inactive)	98.2 µM (inactive)	> 100 µM (inactive)	
COC(=O)c1oc([N+](=O)[O-])c(Cl)c1Cl	17.6 µM (inactive)	13.4 µM (inactive)						
COc1ccc(/C=C/C(=O)c2cc(C(C)(C)C)c(O)c(C(C)(C)C)c2)cc1OC	10 µM (inactive)	4.85 µM (inactive)						
S=C1CC(c2ccc(Cl)cc2)Sc2ccccc2N1 (stereo unspecified)	51.4 µM (inactive)	32.4 µM (inactive)						
CC#CC#C/C=C1\C=CC2(OC=CC2O)O1 (stereo unspecified)			4.93 µM (inactive)	4.79 µM (inactive)	7.38 µM (inactive)	3.94 µM (inactive)	9.4 µM (inactive)	6.24 µM (inactive)
O=C(N/N=C\c1c(O)ccc2ccccc12)c1ccncc1	2.88 µM (inactive)	0.562 µM (active)						
CCOC(=O)CON=c1c2ccccc2ccc2ccccc12	> 100 µM (inactive)	> 100 µM (inactive)						
N[C@H](COCc1ccccc1)c1ccccc1			33.4 µM (inactive)	25.9 µM (inactive)	23.2 µM (inactive)	24.5 µM (inactive)	21.1 µM (inactive)	20.5 µM (inactive)
Cc1cc2c3ccccc3n3c2c2c1OC1(C)CCC(C2C1)C3(C)C (stereo unspecified)			> 25 µM (inactive)		> 25 µM (inactive)	> 25 µM (inactive)	> 25 µM (inactive)	> 25 µM (inactive)
CNNC1=NS(=O)(=O)c2cc(C#N)c(Cl)cc2S1	> 10 µM (inactive)	> 10 µM (inactive)						
O=c1[nH]c(=O)n(C2CC(O)C(CO)O2)c2nc3ccc4ccccc4c3nc12 (stereo unspecified)	> 100 µM (inactive)	> 100 µM (inactive)						
CCOC(=O)CCC(NC(=O)c1ccc(OCc2nc3cc(C(F)(F)F)ccc3nc2-c2ccccc2)cc1)C(=O)OCC (stereo unspecified)	86.1 µM (inactive)	54 µM (inactive)						
CC12CCC3c4cc(Br)c(O)c(Br)c4CCC3C1CCC2O (stereo unspecified)	34.9 µM (inactive)	18.5 µM (inactive)						
Cc1ccc(S(=O)(=O)Nc2ccccc2C(C)(C)C)cc1			31.6 µM (inactive)		17.9 µM (inactive)	19 µM (inactive)	22 µM (inactive)	24.9 µM (inactive)

SMILES	GI50 (DU-145)	GI50 (NCI/ADR-RES)	GI50 (SNB-78)	GI50 (HOP-18)	GI50 (DMS-114)	GI50 (KM-20L2)	GI50 (XF498)	GI50 (LXFL 529)
Cn1c(N/N=C/c2ccc(Cl)cc2)nc(-c2ccc(Cl)cc2)c(C#N)c1=O	22.5 µM (inactive)	> 100 µM (inactive)						
NC(=O)C(=CN1CC(=O)NC1=S)C(N)=O	> 100 µM (inactive)	> 100 µM (inactive)						
C(=C1/CCCCC([n+]2ccccc2)=N1)/c1ccccc1			> 100 µM (inactive)	> 100 µM (inactive)	> 100 µM (inactive)	> 100 µM (inactive)		> 100 µM (inactive)
OC1C#CCSCC#C/C=C\1 (stereo unspecified)	> 100 µM (inactive)	1.93 µM (inactive)						
Nn1c(-c2ccccc2)n[nH]c1=O	> 100 µM (inactive)	> 100 µM (inactive)						
COc1c(C)c(C/C=C(\C)CC/C=C(\C)CC/C=C(\C)CCC=C(C)C)c(OC)c2ccccc12	> 100 µM (inactive)	> 100 µM (inactive)						
Cc1cccc(C)c1NC(=O)C(=O)C(C#N)c1ccccc1Cl (stereo unspecified)			> 100 µM (inactive)	91.4 µM (inactive)	> 100 µM (inactive)	> 100 µM (inactive)	> 100 µM (inactive)	> 100 µM (inactive)
CCCSc1ccc2[nH]c(N3C(=O)/C(=C/c4ccc(O)c(OC)c4)N=C3c3ccccc3)cc2c1	25.8 µM (inactive)	3.1 µM (inactive)						
CC(C)/C(Cl)=N\OC(=O)NNc1ccccc1	> 100 µM (inactive)	28.1 µM (inactive)						
O=C1OC(=O)C2C1C1(c3ccccc3)OC2(c2ccccc2)c2c(Br)c(Br)c(Br)c(Br)c21 (stereo unspecified)			83.8 µM (inactive)	> 100 µM (inactive)	> 100 µM (inactive)	> 100 µM (inactive)	> 100 µM (inactive)	> 100 µM (inactive)
CC1CN(CCO)CC(C)O1 (stereo unspecified)	> 100 µM (inactive)	> 100 µM (inactive)						
Clc1ccc2c(Cl)ncnc2c1						> 100 µM (inactive)	> 100 µM (inactive)	
CCOCc1cc(=O)c2c(OC)cc3c(c2o1)CCC(C)(C)O3			> 100 µM (inactive)	> 100 µM (inactive)		> 100 µM (inactive)	> 100 µM (inactive)	> 100 µM (inactive)
CSc1c(C(=O)Nc2ccc(Cl)cc2)c(N)nn1-c1ccccc1	> 100 µM (inactive)	> 58.7 µM (inactive)						
COC(=O)C(=O)C(C(=O)OC)C(=O)C(=O)Nc1c(Cl)cc([N+](=O)[O-])cc1Cl (stereo unspecified)		72.8 µM (inactive)						
